The values that follow come from patent US12084422B2, “Phenyl-n-quinoline derivatives for treating a RNA virus infection” (ABIVAX, priority 2018, dated 2024).

The subject of one assay is RSV A2. The assay can be described thus: Screening for RSV inhibition using Viral ToxGlo assay in HEp-2 cells. The class given is cell-based. The conditions noted are these: human respiratory syncytial virus, HEp-2, 72 h. The procedure:
Protocol for Screening Antiviral Compounds for RSV Inhibition and Cytotoxicity Using Viral ToxGlo Assay
HEp-2 cells were maintained in Eagle's minimum essential medium (EMEM) with Earle's BSS adjusted to contain 2 mM L-glutamine, 10% fetal bovine serum, 100 U/ml penicillin and 100 μg/ml streptomycin. For the purposes of the screening assay they were grown to 90% confluency, trypsinized and recovered. The trypsin was neutralised with cell culture media and cells were centrifuged at 150×g for 5 minutes before discarding the supernatant and resuspending cell pellet in assay media (EMEM with Earle's BSS adjusted to contain 2 mM L-glutamine, 2% fetal bovine serum and 100 U/ml penicillin and 100 μg/ml streptomycin). The cells were seeded into white clear-bottomed cell culture plates at a density of 1.5×10^4 cells/well in 50 μl and 4×10^3 cells/well in 25 μl for 96 well plates and 384 well plates respectively. For the media/background control column assay media only was added. Cell plates were placed in a humid chamber and incubated overnight at 37° C./5% CO2. After overnight incubation cells were checked for confluency and healthy appearance.
Test articles were made up at 10× test concentration in a maximum DMSO concentration of 10% (final assay concentration maximal 1% DMSO) and added to the cell plates in volumes of 10 μl for 96 well plates and 5 μl for 384 well plates. For cell control and virus control wells the test article solvent only was added. Virus or assay media for cytotoxicity test wells and media/cell control wells was added immediately after test articles at an MOI of 0.5, 40 or 20 μl for 96 and 384 well plates respectively. Virus suspension was prepared by thawing RSV A2 frozen stocks and diluting to the required concentration of plaque forming units in assay media on ice.
Cell plates were further incubated inside a humid chamber for 72 h p.i at 37° C./5% CO2. After the incubation period cells were observed under the microscope to check for characteristic cytopathic effect in virus control wells and healthy cells in the cell control wells. After plates were adjusted to room temperature 20/40 μl Viral ToxGlo (Promega) was added to each well of the 384/96 well cell plates. Plates were incubated at room temperature, protected from light on a plate rocker for 20 minutes before measuring the luminescence on a spectrophotometer (Biotek Synergy HTX).
RSV inhibition was calculated as percentage of cytopathic effect inhibition relative to the virus control and cytotoxicity as percentage of cell survival relative to cell control wells. This allowed EC50 values to be calculated for each test article where a virus inhibition or cytotoxic dose response was identified. EC50 values ranging between 0.001 µM and 5 μM could thus be determined for compounds 1, 6, 10, 13, 28, 38, 43, 47, 48, 49, 50, 51, 52, 53, 54, 55, 56 and 57.

The test system of assay [1] is Chikungunya Virus (CHIKV) strain LR2006-OPY1 with GFP modification (CHIK 5'LR). The assay can be described thus: Inhibition of Chikungunya virus (CHIKV) production in infected HEK293T cell line (GFP fluorescence). The class given is cell-based. The conditions noted are these: HEK-293T, infected HEK293T cells; for inhibition at 1 µM: compounds at 1 μM, MOI 0.1, 22 h, values above 100 lowered to 100, read-out: % CHIKV Inhibition Mean (n = 2); for IC50: second round of experiments. The procedure:
The ability of the compounds to inhibit viral replication was assessed with an experiment in which infected cells were treated by compounds of formula (I) at 1 μM. As a positive control for inhibition of Chikungunya, Ribavirin was used. Toxicity of the compounds was assessed in parallel.
Human embryonic kidney cells 293T (HEK293T, CRL-11268) were maintained in Dulbecco's modified Eagle's Medium (DMEM, 31966-021, Thermo Fisher Scientific) supplemented with 10% of fetal bovine serum (FBS), penicillin and streptomycin. After removal of the medium, cells were washed with a Ca^2+- and Mg^2+-free salt solution to remove all traces of serum. After aspiration of wash solution, cells were dissociated with 0.25% Trypsin-EDTA solution and incubated 30 s at least in 37° ° C. incubator. Concentration of cell suspension was determined by an automatic cell counter (EVE, NanoEntek) and, if needed, adjusted to 0.33×10^6 cells/mL with DMEM medium supplemented with 10% FBS.
100 μL of the cell suspension were dispatched in a ViewPlate-96 Black (6005182, PerkinElmer) and in a transparent 96-well cell culture plate (655180, Greiner bio-one). After an incubation for 24 h at 37° C. under 5% of CO2, compounds were added at the proper concentration.
An intermediate dilution was prepared with DMSO (D8418, Sigma) at 2 mM in a 96-well V-bottom microplate from the stock solution:
Mix 1 μL of the 50 mM stock library in 25 μL of DMSO.
Mix 2 μL of the 25 mM stock library in 25 μL of DMSO.
An intermediate dilution was prepared with DMSO (D8418, Sigma) at 25 mM in a 96-well V-bottom microplate from the stock solution:
Mix 2 μL of the 50 mM stock library in 2 μL of DMSO.
Serial dilutions were performed in 2 μL of DMSO 13 times to reach 0.0015 mM as follows in table III:
For both screen and determination of IC50 1 μL of each solution was added in a 1 mL Masterblock 96 wells (Greiner bio-one, 780261) containing 1 mL of DMEM medium. As a positive control, 5 μL of a 80 mM Ribavirin solution (R9644, Sigma) is added to 1 mL of DMEM. On the other hand, DMSO is used as a negative control.
[…]. Vector Borne Zoonotic Dis. 2006; 6(4)). This modified virus was used to infect cells at MOI 0.1. […].
Medium was removed after 22 h at 37° ° C. under 5% of CO2 and cells were washed as described above. 60 μL of RIPA buffer (50 mM Tris-HCl pH8, 100 mM NaCl, 1 mM MgCl2, 1% Triton X-100) was added to cells and incubated for at least 20 min before reading fluorescence signal. Pierce 660 nm Protein Assay Reagent (22660, Thermo scientific) was used to normalize fluorescence signal by protein quantity.
A first round of experiments has been performed wherein the results are expressed as inhibition percentage, which is calculated as follows, through the following steps:
1. Fluorescence intensity (FI) 509 nm/Absorbance 660 nm (A660)=A
This ratio allows considering the infection (GFP virus) to the protein amount.
2. A′=A—background noise of non-infected plate,
3. B=Fluorescence intensity (FI)/Absorbance 660 nm (A660) of infected but non treated plates,
4. C=A′/B which is then converted as the percentage of infection after treatment, compared to non-treated sample, and subsequently as the […]. For instance, a value of 100 in Table IV here below means that, after treatment, the signal attributed to GFP fluorescence is abolished, which is correlated to the absence of infection.
This value corresponds to the inhibition's percentage.
The following Table IV encompasses said C′ value for some compounds as calculated above with a mean of 2 experiments, and the corresponding standard deviation.
Some values were originally above 100. In these cases, the value has been lowered to 100. This means that some molecules also have an impact on the viability of the cells. In other words, the A value may be lower than the background noise.
Moreover, for each measure, the test was performed with Ribavirin as control. The value of the inhibition percentage was checked, giving 100%.

In general, EC50 refers to the concentration giving half of the maximal effect. As usually defined, the inhibition is how much of the control response was suppressed. Broadly, the IC50 is the concentration that inhibits the measured activity by half. A high value points to a need for much substance.

Take `CCc1cc(OC(C)C)ccc1Nc1ccc2cccc(Cl)c2n1` [Compound 13, 8-chloro-N-(2-ethyl-4-isopropoxyphenyl)quinolin-2-amine]: in the assay on RSV A2, the EC50 was found to be 1180 nM. Besides, in assay [1], the inhibition at 1 µM was 100% and the IC50 was in the range of 1 to 200 nM.
On to `Cc1cc(OC(C)C)c(C)cc1Nc1ccc2cccc(Cl)c2n1` [Compound 43, 8-chloro-N-(4-isopropoxy-2,5-dimethylphenyl)quinolin-2-amine], for which the half-maximal effective concentration (EC50) in the assay on RSV A2 worked out at 348 nM. The IC50 in assay [1] was 1 to 200 nM.
In the case of `Cc1cc(OC(C)C)ccc1Nc1ccc2cccc(Cl)c2n1` [Compound 10, 8-chloro-N-(4-isopropoxy-2-methylphenyl)quinolin-2-amine], in the assay on RSV A2, the 50% effective concentration (EC50) was found to be 585 nM. Further, in assay [1], the inhibition at 1 µM is 100% and the 50% inhibitory concentration (IC50) was in the range of 1 to 200 nM.
